“And” between values parts separate entries of the source, which are not always exact repeats. Identical values can stand only once. Inconclusive results and toxic doses are left out. How the source made its calls: active means survival T/C of 150% or more; inactive means T/C below 125% in these data.
System: P388 leukemia ip, CD2F1 mice, survival T/C
Test: NCI In Vivo Anticancer Drug Screen. Data for tumor model P388 Leukemia (intraperitoneal) in CD2F1 (CDF1) mice
Settings: endpoint: median survival time, higher = longer survival
How it was run: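 Mice carrying the transplanted tumor received test compound or vehicle. Survival was recorded in each group, and the value is the treated-group measurement divided by that of the vehicle-treated control group.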

[1] = dose: 25.0 mg/kg/injection, schedule: Q01DX009 (ip), vehicle: saline with Tween-80
[2] = dose: 50.0 mg/kg/injection, schedule: Q01DX009 (ip), vehicle: saline with Tween-80
[3] = dose: 100.0 mg/kg/injection, schedule: Q01DX009 (ip), vehicle: saline with Tween-80
[4] = dose: 60.0 mg/kg/injection, schedule: Q01DX005 (ip), vehicle: Klucel (hydroxypropylcellulose) (HPC)
[5] = dose: 240.0 mg/kg/injection, schedule: Q01DX005 (ip), vehicle: Klucel (hydroxypropylcellulose) (HPC)
[6] = dose: 12.5 mg/kg/injection, schedule: Q01DX009 (ip), vehicle: saline with Tween-80

Measured: T/C

N#Cc1ccc(NN=NCCCCCl)cc1
inactive: dose: 3.12 mg/kg/injection, schedule: Q01DX005 (ip), vehicle: distilled water + Tween-80 94 % of control | dose: 6.25 mg/kg/injection, schedule: Q01DX005 (ip), vehicle: distilled water + Tween-80 88 % of control | dose: 12.5 mg/kg/injection, schedule: Q01DX005 (ip), vehicle: distilled water + Tween-80 91 % of control | dose: 25.0 mg/kg/injection, schedule: Q01DX005 (ip), vehicle: distilled water + Tween-80 94 % of control | dose: 50.0 mg/kg/injection, schedule: Q01DX005 (ip), vehicle: distilled water + Tween-80 105 % of control

CCCCCCCCCCCCCCCN1CCS(=O)(=O)CC1
inactive: dose: 50.0 mg/kg/injection, schedule: Q01DX009 (ip), vehicle: Klucel (hydroxypropylcellulose) (HPC) 98 % of control | dose: 100.0 mg/kg/injection, schedule: Q01DX009 (ip), vehicle: Klucel (hydroxypropylcellulose) (HPC) 94 % of control | dose: 200.0 mg/kg/injection, schedule: Q01DX009 (ip), vehicle: Klucel (hydroxypropylcellulose) (HPC) 94 % of control

NC(=S)N/N=C/c1cccnc1
inactive: [1] 92 % of control | [2] 92 % of control | [3] 99 % of control | dose: 200.0 mg/kg/injection, schedule: Q01DX009 (ip), vehicle: saline with Tween-80 92 % of control

CCOC(=O)NC(=Cc1ccccn1)c1ccc(Cl)cc1 (mixture of isomers)
inactive: dose: 60.0 mg/kg/injection, schedule: Q01DX005 (ip), vehicle: saline with Tween-80 103 % of control | dose: 120.0 mg/kg/injection, schedule: Q01DX005 (ip), vehicle: saline with Tween-80 97 % of control | dose: 240.0 mg/kg/injection, schedule: Q01DX005 (ip), vehicle: saline with Tween-80 93 % of control

CC(=O)c1c(C)n(-c2ccccc2)c2c1[nH]c1ccccc12
inactive: dose: 3.75 mg/kg/injection, schedule: Q01DX005 (ip), vehicle: Klucel (hydroxypropylcellulose) (HPC) 94 % of control | dose: 7.5 mg/kg/injection, schedule: Q01DX005 (ip), vehicle: Klucel (hydroxypropylcellulose) (HPC) 92 % of control | dose: 15.0 mg/kg/injection, schedule: Q01DX005 (ip), vehicle: Klucel (hydroxypropylcellulose) (HPC) 86 % of control and 93 % of control | [4] 93 % of control | [5] 92 % of control

COc1ccc(-n2cc[n+](C)c2/C=N\O)cc1
inactive: [2] 97 % of control | [3] 98 % of control

O=C1NC(=O)C(=Cc2ccc(Cl)cc2)C(=O)N1
inactive: dose: 50.0 mg/kg/injection, schedule: Q01DX005 (ip), vehicle: Klucel (hydroxypropylcellulose) (HPC) 114 % of control | dose: 100.0 mg/kg/injection, schedule: Q01DX005 (ip), vehicle: Klucel (hydroxypropylcellulose) (HPC) 116 % of control

COc1ccc2c(c1)NC(C(C)C)=NS2(=O)=O
inactive: [4] 99 % of control | dose: 120.0 mg/kg/injection, schedule: Q01DX005 (ip), vehicle: Klucel (hydroxypropylcellulose) (HPC) 95 % of control | [5] 97 % of control

CCOc1nsc(OCC)n1
inactive: [6] 103 % of control | [1] 106 % of control | [2] 106 % of control | [3] 114 % of control

O=C(CC(=O)c1ccccc1)c1ccccc1.[Tl]
inactive: dose: 6.25 mg/kg/injection, schedule: Q01DX009 (ip), vehicle: saline with Tween-80 100 % of control | [6] 98 % of control

NC(=O)CSCC(=O)c1ccccc1
inactive: dose: 50.0 mg/kg/injection, schedule: Q01DX005 (ip), vehicle: saline with Tween-80 102 % of control | dose: 100.0 mg/kg/injection, schedule: Q01DX005 (ip), vehicle: saline with Tween-80 107 % of control | dose: 200.0 mg/kg/injection, schedule: Q01DX005 (ip), vehicle: saline with Tween-80 102 % of control

Nc1nc2c(c(=O)[nH]1)N(C(=O)CCCC(=O)O)C(CN(C(=O)CCCC(=O)O)c1ccc(C(=O)NC(CCC(=O)O)C(=O)O)cc1)CN2 (configuration not stated) (tested in a mixture with another compound)
inactive: dose: 50.0 mg/kg/injection, schedule: Q01DX009 (ip), vehicle: saline 94 % of control | dose: 100.0 mg/kg/injection, schedule: Q01DX009 (ip), vehicle: saline 110 % of control | dose: 200.0 mg/kg/injection, schedule: Q01DX009 (ip), vehicle: saline 95 % of control

c1cc2cc(c1)CSCc1cccc(c1)CSCc1cccc(c1)CSC2
inactive: dose: 50.0 mg/kg/injection, schedule: Q04DX002 (ip), vehicle: saline 96 % of control | dose: 100.0 mg/kg/injection, schedule: Q04DX002 (ip), vehicle: saline 93 % of control | dose: 200.0 mg/kg/injection, schedule: Q04DX002 (ip), vehicle: saline 93 % of control

Source: PubChem BioAssay AID330 (DTP/NCI, 2004)
